In experiment [1] the test system is S. pneumoniae serotypes of PCV13. The conditions noted are these: PCV13 plus 3M-052 compared to PCV13 alone; cited from earlier work.
The target in experiment [2] is T1, human TLR7 (Homo sapiens, UniProt Q9NYK1).
T1 construct: host or cells: HEK-Blue 293 cells expressing human TLR7
T1 sequence (Q9NYK1 27-1049): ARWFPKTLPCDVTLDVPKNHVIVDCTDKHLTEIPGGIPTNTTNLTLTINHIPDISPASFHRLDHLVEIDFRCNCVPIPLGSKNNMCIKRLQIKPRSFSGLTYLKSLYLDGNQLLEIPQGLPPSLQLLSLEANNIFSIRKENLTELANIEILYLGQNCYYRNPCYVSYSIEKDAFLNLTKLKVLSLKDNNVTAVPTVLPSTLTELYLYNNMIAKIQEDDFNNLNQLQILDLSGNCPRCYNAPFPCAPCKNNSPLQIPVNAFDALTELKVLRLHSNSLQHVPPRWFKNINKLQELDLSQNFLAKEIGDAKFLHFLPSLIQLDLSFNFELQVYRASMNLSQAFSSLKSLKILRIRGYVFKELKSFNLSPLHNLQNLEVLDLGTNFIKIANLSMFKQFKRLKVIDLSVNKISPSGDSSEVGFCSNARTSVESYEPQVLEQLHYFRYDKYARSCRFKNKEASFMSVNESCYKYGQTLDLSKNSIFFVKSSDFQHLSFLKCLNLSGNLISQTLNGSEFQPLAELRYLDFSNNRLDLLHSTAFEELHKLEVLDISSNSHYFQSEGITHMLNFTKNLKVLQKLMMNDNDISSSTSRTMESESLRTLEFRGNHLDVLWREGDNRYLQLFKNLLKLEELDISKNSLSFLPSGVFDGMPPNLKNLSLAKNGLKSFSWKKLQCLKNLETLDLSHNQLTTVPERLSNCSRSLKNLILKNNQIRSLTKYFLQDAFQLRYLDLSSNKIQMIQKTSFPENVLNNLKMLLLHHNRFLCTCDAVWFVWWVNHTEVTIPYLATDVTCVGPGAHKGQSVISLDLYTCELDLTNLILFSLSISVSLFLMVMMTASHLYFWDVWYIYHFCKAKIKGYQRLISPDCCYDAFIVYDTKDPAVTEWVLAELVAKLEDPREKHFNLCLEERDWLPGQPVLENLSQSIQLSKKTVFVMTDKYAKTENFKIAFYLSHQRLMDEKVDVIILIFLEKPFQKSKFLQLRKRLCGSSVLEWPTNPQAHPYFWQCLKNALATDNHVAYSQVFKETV
In words: Cell-based TLR 7/8 assay, HEK-Blue TLR7 cells (SEAP reporter). The conditions noted are these: based on Compound concentration only; Compounds formulated as SNEs; read-out: huTLR7 EC50 (converted). On the procedure: (§1) HEK-Blue™ TLR7 and TLR8 cells (InvivoGen) were designed to assess the stimulation of TLR7 and TLR8 by monitoring the activation of NF-κB and AP-1. Compound B-1-SNE samples were diluted 1:2 across an 8-point titration in diluent buffer histidine/PS-20 in a sterile V-bottom plate. 20 μL of samples were transferred to corresponding wells of two flat bottom assay plates. Media was aspirated from HEK-Blue™ human TLR 7 and TLR 8 cells (T-75 flasks) and gently rinsed with pre-warmed (37° C.) DPBS for a total volume of 5 mL/flask. The DPBS was gently removed from the cells and cells were gently manually dislodged and resuspended in 2 mL of DPBS. Cell assay suspensions were then prepared at approximately 2.2×10^5 cells per mL of HEK-Blue™ detection medium (InvivoGen). 180 μL of cell suspension in detection medium was added to each well of the two flat bottom assay plates containing the diluted Compound B-1-SNE samples for a final dilution of sample equaling 1:10 (180 μL of cell suspension in detection medium and 20 μL of sample). The cells were then incubated at 37° C. in 5% CO2 for 20 hrs. The reporter gene, NF-Kb, induces the production of secreted embryonic alkaline phosphatase (SEAP) when stimulated and can be monitored using the vendor supplied SEAP detection kit. SEAP colorimetric changes were read at an absorbance of 640 nm using a SpectroMax Stakmax plate reader. […] EC50 values were calculated based on total Compound B-1-SNE concentration using GraphPad Prism Software and analyzed using agonist vs. response variable slope (four parameters) least squares fit.
(§2) Further to the description in Example 10, a cell-based activation system was used to assess activity of the Compound-formulated nanoemulsion systems, prepared as described in examples, supra. HEK-Blue™ TLR7 and TLR8 cells (InvivoGen) were designed to assess the stimulation of TLR7 and TLR8 by monitoring the activation of NF-κB and AP-1. Compound-SNE samples were diluted 1:2 across an 8-point titration in diluent buffer histidine/PS-20 in a sterile V-bottom plate. 20 μL of samples were transferred to corresponding wells of two flat bottom assay plates. Media was aspirated from HEK-Blue™ human TLR 7 and TLR 8 cells (T-75 flasks) and gently rinsed with pre-warmed (37° C.) DPBS for a total volume of 5 mL/flask. The DPBS was gently removed from the cells and cells were gently manually dislodged and resuspended in 2 mL of DPBS. Cell assay suspensions were then prepared at approximately 2.2×10^5 cells per mL of HEK-Blue™ detection medium (InvivoGen). 180 μL of cell suspension in detection medium was added to each well of the two flat bottom assay plates containing the diluted Compound-SNE samples for a final dilution of sample equaling 1:10 (180 μL of cell suspension in detection medium and 20 μL of sample). The cells were then incubated at 37° C. in 5% CO2 for 20 hrs. The reporter gene, NF-Kb, induces the production of secreted embryonic alkaline phosphatase (SLAP) when stimulated and can be monitored using the vendor supplied SLAP detection kit. SLAP colorimetric changes were read at an absorbance of 640 nm using a SpectroMax Stakmax plate reader. EC50s were calculated based on Compound concentration only, not total Compound-SNE concentration (Table 6) using GraphPad Prism Software and analyzed using agonist vs. response variable slope (four parameters) least squares fit.

The target of experiment [3] is T2, human TLR8 (Homo sapiens, UniProt Q9NR97).
T2 construct: host or cells: HEK-Blue 293 cells expressing human TLR8
T2 sequence (Q9NR97 27-1041): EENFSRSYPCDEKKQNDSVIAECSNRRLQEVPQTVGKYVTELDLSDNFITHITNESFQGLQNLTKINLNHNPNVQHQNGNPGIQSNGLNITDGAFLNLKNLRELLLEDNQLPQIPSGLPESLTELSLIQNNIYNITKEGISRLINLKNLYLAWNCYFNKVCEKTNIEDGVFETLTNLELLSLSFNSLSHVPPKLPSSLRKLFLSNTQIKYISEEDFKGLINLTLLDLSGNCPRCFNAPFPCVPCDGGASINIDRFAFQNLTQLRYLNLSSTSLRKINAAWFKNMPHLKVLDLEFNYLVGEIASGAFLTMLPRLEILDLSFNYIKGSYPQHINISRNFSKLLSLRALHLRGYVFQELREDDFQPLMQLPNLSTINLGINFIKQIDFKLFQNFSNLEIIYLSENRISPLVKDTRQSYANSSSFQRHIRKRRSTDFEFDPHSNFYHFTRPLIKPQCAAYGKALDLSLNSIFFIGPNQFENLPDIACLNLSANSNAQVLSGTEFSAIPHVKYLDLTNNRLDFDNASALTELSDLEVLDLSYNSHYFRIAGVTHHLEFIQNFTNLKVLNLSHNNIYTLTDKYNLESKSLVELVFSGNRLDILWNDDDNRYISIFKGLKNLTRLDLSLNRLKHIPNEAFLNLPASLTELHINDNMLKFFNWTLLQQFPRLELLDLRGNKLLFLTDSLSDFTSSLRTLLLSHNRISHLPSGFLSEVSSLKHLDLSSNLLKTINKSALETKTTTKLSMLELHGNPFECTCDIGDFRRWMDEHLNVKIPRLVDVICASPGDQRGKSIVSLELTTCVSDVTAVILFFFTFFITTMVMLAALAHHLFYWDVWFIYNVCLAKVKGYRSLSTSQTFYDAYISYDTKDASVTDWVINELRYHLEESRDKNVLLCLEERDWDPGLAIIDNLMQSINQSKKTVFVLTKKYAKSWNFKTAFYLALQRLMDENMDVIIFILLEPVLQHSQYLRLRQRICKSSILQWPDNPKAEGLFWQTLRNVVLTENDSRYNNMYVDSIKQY
Description: Cell-based TLR 7/8 assay, HEK-Blue TLR8 cells (SEAP reporter). The conditions noted are these: based on Compound concentration only; Compounds formulated as SNEs; read-out: huTLR8 EC50 (converted). On the procedure:
as §1, §2

Results on 4 molecules are retold here after patent US20240390471A1, “COMPOUNDS AND ADJUVANT FORMULATIONS USEFUL IN PNEUMOCOCCAL VACCINES” (Merck Sharp & Dohme LLC, priority 2023, published 2024).

A word on the EC50: it is the concentration at which the effect is half-maximal.

With `CCCCCCCCCCCCCCCCCC(=O)NCCCCOn1c(CCCC)nc2c(N)nc3ccccc3c21` [Compound 3M-052], the “serotype specific antibody responses (binding titers and opsonophagocytic killing)” value in experiment [1] is “accelerated and enhanced serotype specific antibody responses”.

Regarding `CCCCC/C=C\C/C=C\CCCCCCCCC(CCCCCCCC/C=C\C/C=C\CCCCC)OC(=O)NCCCCN(C)Cc1cc(OC)c(Cn2cc3nc(N)nc(NCCCC)c3n2)c(OC)c1` [Compound D-1, (6Z,9Z,28Z,31Z)-heptatriaconta-6,9,28,31-tetraen-19-yl (4-((4-((5-amino-7-(butylamino)-2H-pyrazolo[4,3-d]pyrimidin-2-yl)methyl)-3,5-dimethoxybenzyl)(methyl)amino)butyl)carbamate], the concentration giving a half-maximal response (EC50) was 17.2 µM in experiment [2] and 155 µM in experiment [3].

`CCCCCCCCCCCCCCCCCC(=O)NCCCNC(=O)N1CCN(c2ccc(Cn3cc4nc(N)nc(NCCCC)c4n3)c(OC)c2)CC1` [Compound D-2, 4-(4-((5-amino-7-(butylamino)-2H-pyrazolo[4,3-d]pyrimidin-2-yl)methyl)-3-methoxyphenyl)-N-(3-stearamidopropyl)piperazine-1-carboxamide]: the values for the EC50 in experiment [2] and in experiment [3] were 17.7 µM and 5.82 µM, respectively.

Turning to `CCCCCCCCCCCCCCCCCC(=O)NCCCOC(=O)N1CCN(c2ccc(Cn3cc4nc(N)nc(NCCCC)c4n3)c(OC)c2)CC1` [Compound D-3, 3-stearamidopropyl 4-(4-((5-amino-7-(butylamino)-2H-pyrazolo[4,3-d]pyrimidin-2-yl)methyl)-3-methoxyphenyl)piperazine-1-carboxylate], the EC50 in experiment [2] is 23.7 µM; in experiment [3], 13.8 µM.
